Data: ChEMBL document CHEMBL3297734, “Cationic lipid-conjugated dexamethasone as a selective antitumor agent” (Eur J Med Chem, 2014)
Activity calls are given as the source filed them. The calls are words filed in the database; no cut-off is given here.

What was measured:
[1] = tested on: HEK-293T; assay: Cytotoxicity against HEK293T cells after 72 hrs by MTT assay; assay type: cell-based; settings: Homo sapiens
[2] = tested on: A549; assay: Anticancer against human A549 cells after 72 hrs by MTT assay; assay type: functional, cell-based; settings: A549, 72 h
[3] = tested on: CHO; assay: Cytotoxicity against CHO cells after 72 hrs by MTT assay; assay type: cell-based; settings: Cricetulus griseus
[4] = Cytotoxicity against mouse fibroblasts after 72 hrs by MTT assay; assay type: cell-based; settings: Fibroblast
[5] = tested on: MCF7; assay: Anticancer against human MCF7 cells after 72 hrs by MTT assay; assay type: functional, cell-based; settings: MCF7, 72 h
[6] = Anticancer against mouse B16F10 cells after 72 hrs by MTT assay; assay type: functional, cell-based; settings: B16-F10, 72 h
[7] = tested on: B16-F10; assay: Antitumor activity against mouse B16F10 cells xenografted in C57BL/6 mouse assessed as up-regulation of P53 in tumor at 20 mg/kg, ip measured after 24 days of tumor inoculation by Western blot analysis; assay type: functional, organism-based; parameters: dose 20 mg/kg
[8] = tested on: B16-F10; assay: Induction of apoptosis in mouse B16F10 cells assessed as up-regulation of Smac/Diablo at 10 uM after 48 hrs by Western blot analysis; assay type: functional, cell-based
[9] = tested on: B16-F10; assay: Induction of apoptosis in mouse B16F10 cells assessed as up-regulation of caspase 7 at 10 uM after 48 hrs by Western blot analysis; assay type: functional, cell-based
[10] = tested on: MCF7; assay: Induction of apoptosis in human MCF7 cells assessed as early apoptotic cells at 10 uM after 48 hrs using FITC-annexin V-FITC/propidium iodide by flow cytometry (reference value: 3%); assay type: functional
[11] = tested on: B16-F10; assay: Induction of apoptosis in mouse B16F10 cells assessed as Akt destruction at 10 uM after 48 hrs by Western blot analysis; assay type: functional, cell-based
[12] = tested on: B16-F10; assay: Induction of apoptosis in mouse B16F10 cells assessed as early apoptotic cells at 10 uM after 48 hrs using FITC-annexin V-FITC/propidium iodide by flow cytometry (reference value: 0.7%); assay type: functional
[13] = tested on: B16-F10; assay: Antitumor activity against mouse B16F10 cells xenografted in C57BL/6 mouse assessed as apoptotic regions at 20 mg/kg, ip measured after 24 days of tumor inoculation by VE-cadherin; assay type: functional, organism-based; parameters: dose 20 mg/kg
[14] = tested on: HEK-293T; assay: Induction of apoptosis in HEK293T cells assessed as late apoptotic cells at 10 uM after 48 hrs using FITC-annexin V-FITC/propidium iodide by flow cytometry (reference value: 0.4%); assay type: cell-based; settings: human
[15] = tested on: B16-F10; assay: Antitumor activity against mouse B16F10 cells xenografted in C57BL/6 mouse assessed as apoptotic regions at 20 mg/kg, ip measured after 24 days of tumor inoculation by TUNEL assay; assay type: functional, organism-based; parameters: dose 20 mg/kg
[16] = tested on: HEK-293T; assay: Induction of apoptosis in HEK293T cells assessed as necrotic cells at 10 uM after 48 hrs using FITC-annexin V-FITC/propidium iodide by flow cytometry (reference value: 0.7%); assay type: cell-based; settings: human
[17] = Induction of apoptosis in CHO cells assessed as viable cells at 10 uM after 48 hrs using FITC-annexin V-FITC/propidium iodide by flow cytometry (reference value: 93.3%); assay type: cell-based, Cricetulus griseus; settings: chinese hamster, read-out: Activity
[18] = tested on: B16-F10; assay: Induction of apoptosis in mouse B16F10 cells assessed as increase in ratio of BAX/Bcl2 expression at 10 uM after 48 hrs by Western blot analysis relative to untreated control; assay type: functional, cell-based
[19] = tested on: CHO; assay: Induction of apoptosis in CHO cells assessed as late apoptotic cells at 10 uM after 48 hrs using FITC-annexin V-FITC/propidium iodide by flow cytometry (reference value: 0%); assay type: cell-based, Cricetulus griseus; settings: chinese hamster
[20] = tested on: B16-F10; assay: Induction of apoptosis in mouse B16F10 cells assessed as late apoptotic cells at 10 uM after 48 hrs using FITC-annexin V-FITC/propidium iodide by flow cytometry (reference value: 2.5%); assay type: functional
[21] = tested on: B16-F10; assay: Induction of apoptosis in mouse B16F10 cells assessed as down-regulation of JAK3/STAT3 at 10 uM after 48 hrs by Western blot analysis; assay type: functional, cell-based
[22] = tested on: B16-F10; assay: Cytotoxicity against mouse B16F10 cells assessed as cell viability after 48 hrs by flow cytometry in presence of RU-486 GR antagonist; assay type: functional, cell-based
[23] = tested on: MCF7; assay: Cytotoxicity against human MCF7 cells transfected with GR-siRNA assessed as cell viability after 48 hrs by flow cytometry; assay type: functional, cell-based
[24] = tested on: CHO; assay: Induction of apoptosis in CHO cells assessed as early apoptotic cells at 10 uM after 48 hrs using FITC-annexin V-FITC/propidium iodide by flow cytometry (reference value: 0.1%); assay type: cell-based, Cricetulus griseus; settings: chinese hamster
[25] = tested on: HEK-293T; assay: Induction of apoptosis in HEK293T cells assessed as early apoptotic cells at 10 uM after 48 hrs using FITC-annexin V-FITC/propidium iodide by flow cytometry (reference value: 0.3%); assay type: cell-based; settings: human
[26] = tested on: MCF7; assay: Induction of apoptosis in human MCF7 cells assessed as late apoptotic cells at 10 uM after 48 hrs using FITC-annexin V-FITC/propidium iodide by flow cytometry (reference value: 3.5%); assay type: functional
[27] = tested on: B16-F10; assay: Induction of apoptosis in mouse B16F10 cells assessed as necrotic cells at 10 uM after 48 hrs using FITC-annexin V-FITC/propidium iodide by flow cytometry (reference value: 1.7%); assay type: functional
[28] = tested on: B16-F10; assay: Induction of apoptosis in mouse B16F10 cells assessed as p53 up-regulation at 10 uM after 48 hrs by flow cytometry; assay type: functional, cell-based
[29] = tested on: B16-F10; assay: Induction of apoptosis in mouse B16F10 cells assessed as caspase 9 activation at 10 uM after 48 hrs by Western blot analysis; assay type: functional, cell-based
[30] = tested on: B16-F10; assay: Antitumor activity against mouse B16F10 cells xenografted in C57BL/6 mouse assessed as down-regulation of p-Mdm2 in tumor at 20 mg/kg, ip measured after 24 days of tumor inoculation by Western blot analysis; assay type: functional, organism-based; parameters: dose 20 mg/kg
[31] = tested on: B16-F10; assay: Induction of apoptosis in mouse B16F10 cells assessed as viable cells at 10 uM after 48 hrs using FITC-annexin V-FITC/propidium iodide by flow cytometry (reference value: 95.1%); assay type: functional; settings: B16-F10, 48 h, read-out: Activity
[32] = tested on: B16-F10; assay: Induction of apoptosis in mouse B16F10 cells assessed as caspase 3 activation at 10 uM after 48 hrs by Western blot analysis; assay type: functional, cell-based
[33] = tested on: MCF7; assay: Induction of apoptosis in human MCF7 cells assessed as viable cells at 10 uM after 48 hrs using FITC-annexin V-FITC/propidium iodide by flow cytometry (reference value: 86.4%); assay type: functional; settings: MCF7, 48 h, read-out: Activity
[34] = tested on: MCF7; assay: Induction of apoptosis in human MCF7 cells assessed as necrotic cells at 10 uM after 48 hrs using FITC-annexin V-FITC/propidium iodide by flow cytometry (reference value: 7.1%); assay type: functional
[35] = tested on: B16-F10; assay: Cytotoxicity against mouse B16F10 cells transfected with GR-siRNA assessed as cell viability after 48 hrs by flow cytometry; assay type: functional, cell-based
[36] = Induction of apoptosis in HEK293T cells assessed as viable cells at 10 uM after 48 hrs using FITC-annexin V-FITC/propidium iodide by flow cytometry (reference value: 98.6%); assay type: cell-based, HEK-293T; settings: human, read-out: Activity
[37] = tested on: CHO; assay: Induction of apoptosis in CHO cells assessed as necrotic cells at 10 uM after 48 hrs using FITC-annexin V-FITC/propidium iodide by flow cytometry (Rvb =6.6%); assay type: cell-based, Cricetulus griseus; settings: chinese hamster
[38] = tested on: B16-F10; assay: Antitumor activity against mouse B16F10 cells xenografted in C57BL/6 mouse assessed as reduction in angiogenesis in tumor measured as VEGRF2 expression at 20 mg/kg, ip measured after 24 days of tumor inoculation by microscopy relative to untreated control; assay type: functional, organism-based; parameters: dose 20 mg/kg
[39] = tested on: B16-F10; assay: Induction of apoptosis in mouse B16F10 cells assessed as down-regulation of XIAP at 10 uM after 48 hrs by Western blot analysis; assay type: functional, cell-based
[40] = tested on: B16-F10; assay: Antitumor activity against mouse B16F10 cells xenografted in C57BL/6 mouse assessed as inhibition tumor growth at 20 mg/kg, ip measured after 24 days of tumor inoculation; assay type: functional, organism-based; parameters: dose 20 mg/kg

| SMILES | IC50 [1] [µM] | IC50 [2] [µM] | IC50 [3] [µM] | IC50 [4] [µM] | IC50 [5] [µM] | IC50 [6] [µM] | Activity [10] [%] | Activity [12] [%] | Activity [13] | Activity [14] [%] | Activity [15] | Activity [16] [%] | viability at 48 h, 10 µM [17] [%] | Activity [18] | Activity [19] [%] | Activity [20] [%] | Activity [24] [%] | Activity [25] [%] | Activity [26] [%] | Activity [27] [%] | further results |
| --- | --- | --- | --- | --- | --- | --- | --- | --- | --- | --- | --- | --- | --- | --- | --- | --- | --- | --- | --- | --- | --- |
| CCCCCCCCCCCCCCCC[N+](C)(CCCCCCCCCCCCCCCC)CCNC(=O)[C@@]1(O)[C@H](C)C[C@H]2[C@@H]3CCC4=CC(=O)C=C[C@]4(C)[C@@]3(F)[C@@H](O)C[C@@]21C | > 20 | 14.8 | > 15 | > 15 | > 15 | > 15 |  |  |  |  |  |  |  |  |  |  |  |  |  |  |  |
| CCCCCCCCCCCC[N+](C)(CCCCCCCCCCCC)CCNC(=O)[C@@]1(O)[C@H](C)C[C@H]2[C@@H]3CCC4=CC(=O)C=C[C@]4(C)[C@@]3(F)[C@@H](O)C[C@@]21C | > 15 | 14 | > 20 | > 15 | 13.5 | > 15 |  |  |  |  |  |  |  |  |  |  |  |  |  |  |  |
| CCCC[N+](C)(CCCC)CCNC(=O)[C@@]1(O)[C@H](C)C[C@H]2[C@@H]3CCC4=CC(=O)C=C[C@]4(C)[C@@]3(F)[C@@H](O)C[C@@]21C | > 15 | > 15 | > 20 | > 20 | > 15 | > 20 |  |  |  |  |  |  |  |  |  |  |  |  |  |  |  |
| CCCCCCCC[N+](C)(CCCCCCCC)CCNC(=O)[C@@]1(O)[C@H](C)C[C@H]2[C@@H]3CCC4=CC(=O)C=C[C@]4(C)[C@@]3(F)[C@@H](O)C[C@@]21C.[Cl-] | > 15 | 7.2 | > 15 | > 15 | 6.5 | 6 | 18.6 | 27 | inactive | 0.1 | Active | 0.5 | 94.1 | Active | 0 | 12.5 | 0 | 0.1 | 7.8 | 2.5 | Activity [7]: Active; Activity [8]: Active; Activity [9]: Active; Activity [11]: Active; Activity [21]: Active; Activity [22]: inactive; Activity [23]: inactive; Activity [28]: Active; Activity [29]: Active; Activity [30]: Active; viability at 10 µM [31]: 58%; Activity [32]: Active; viability at 10 µM [33]: 61.5%; Activity [34]: 13.1%; Activity [35]: inactive; viability at 48 h, 10 µM [36]: 99.3%; Activity [37]: 5.9%; inhibition [38]: Active; Activity [39]: Active; inhibition [40]: Active |
| CC[N+](C)(CC)CCNC(=O)[C@@]1(O)[C@H](C)C[C@H]2[C@@H]3CCC4=CC(=O)C=C[C@]4(C)[C@@]3(F)[C@@H](O)C[C@@]21C | > 20 | > 15 | > 15 | > 20 | > 15 | > 20 |  |  |  |  |  |  |  |  |  |  |  |  |  |  |  |
| C[C@@H]1C[C@H]2[C@@H]3CCC4=CC(=O)C=C[C@]4(C)[C@@]3(F)[C@@H](O)C[C@]2(C)[C@@]1(O)C(=O)CO [DEXAMETHASONE] | > 20 | > 15 | > 20 | > 15 | > 15 | > 20 | 2.4 | 0.8 | Active | 0.1 | Active | 0.4 | 95.8 | Active | 0 | 3.7 | 0 | 0.1 | 5.9 | 1.3 | viability at 10 µM [31]: 94.1%; viability at 10 µM [33]: 82.8%; Activity [34]: 9.5%; viability at 48 h, 10 µM [36]: 94.4%; Activity [37]: 4.2%; inhibition [40]: Active |
